Data on 14 compounds can be found in paper PMC7850479, “A drug repurposing screen identifies hepatitis C antivirals as inhibitors of the SARS-CoV2 main protease” (PLoS ONE, 2021).

Experiment [1] has as its target T1, SARS-CoV-2 Mpro (Severe acute respiratory syndrome coronavirus 2, UniProt P0DTD1). The experiment in a line: Dose validation assay (10-point dose-response), fluorescent Mpro protease assay with Ac-Abu-Tle-Leu-Gln-AFC. It counts as biochemical. As to conditions: for IC50 / Hill Slope: 80nM Mpro, 32μM Ac-Abu-Tle-Leu-Gln-AFC, n = 3, 4-parameter nonlinear regression; for IC50: 10 concentrations 150 μM to 7.6 nM.

The target in experiment [2] is T1, SARS-CoV-2 Mpro. It counts as biochemical.
In experiment [3] the test system is NS3 protease variants. As to conditions: HCV NS3 single amino acid mutations; cited from earlier work.
Experiment [4] deals with HCV protease. As to conditions: cited from earlier work.
For experiment [5], the system named is SARS-CoV-2. Particulars: cellular model of viral replication; read-out: EC50, SARS-CoV-2 antiviral activity; cited from earlier work.
The test system of experiment [6] is Covid-19 patients. Also noted: method as in PMID 32445440. As to conditions: cohort of 1062 patients, placebo control 15 days; cited from earlier work.
[7] abbreviates: Z-score in the protease inhibition assay, ΔRFU at 10 minutes, 50 μM compound, substrate not stated.

Read-outs that look alike come from different tables or passages of the source. Residues, ends and D or L forms follow the SMILES beside them.

`O=c1c2ccccc2[se]n1-c1ccccc1` [Ebselen]: the “dose response against Mpro cleavage of substrate Ac-Abu-Tle-Leu-Gln-AFC” value in experiment [1] (result in words, S1 Fig) is listed as “failed to show a significant dose response”.

`CCOC(=O)c1ccc(N2NC(=O)/C(=C/c3ccc([N+](=O)[O-])o3)C2=O)cc1` [PYR-41]: in experiment [1], the midpoint of inhibition, the IC50, lay at 17.4 µM and the “Hill Slope” value is reported as 0.9933.

For `C[C@H](NC(=O)[C@@H](Cc1c[nH]c2ccccc12)NC(=O)[C@@H](N)Cc1cnc[nH]1)C(=O)N[C@@H](Cc1c[nH]c2ccccc12)C(=O)N[C@H](Cc1ccccc1)C(=O)N[C@@H](CCCCN)C(N)=O` [U-75799E] (HELM PEPTIDE1{H.[dW].A.W.[dF].K.[am]}$$$$V2.0), the Z10 in experiment [2] worked out at 1.044.

On to `OC[C@H]1O[C@H]([S-])[C@H](O)[C@@H](O)[C@@H]1O.[Au+]` [aurothioglucose], for which, in experiment [1], the IC50 (in general, the concentration that gives 50% inhibition) was found to be 13.3 µM and the “Hill Slope” value was determined as 1.496.

As for `CC(C)(C)NC(=O)N[C@H](C(=O)N1C[C@H]2[C@@H]([C@H]1C(=O)NC(CC1CCC1)C(=O)C(N)=O)C2(C)C)C(C)(C)C` (stereo partly shown) [boceprevir], the “reduction in activity caused by single amino acid mutations” value in experiment [3] is “up to 120 fold”. Moreover, in experiment [4], the IC50 was < 90 nM. For the same compound, the “Hill Slope” value in experiment [1] was 0.4123. Besides, the “reduction in potency against enzymatic activity, SARS-CoV-2 Mpro compared to HCV protease” value in experiment [1] (~1 μM for Mpro versus below 90 nM for HCV protease) stood at 10 fold. Also, the EC50 (as a rule, the concentration needed to bring the measured effect to its halfway point) in experiment [5] was 1950 ± 1620 nM.

For `CCCC[C@@H](C=O)NC(=O)[C@H](CC(C)C)NC(=O)OCc1ccccc1` [calpeptin], the “Hill Slope” value in experiment [1] was determined as 1.009.

As to `COc1ccc2c(O[C@@H]3C[C@H]4C(=O)N[C@]5(C(=O)O)C[C@H]5/C=C\CCCCC[C@H](NC(=O)OC5CCCC5)C(=O)N4C3)cc(-c3csc(NC(C)C)n3)nc2c1` [ciluprevir], in experiment [1], the midpoint of inhibition, the IC50, lay at 20.8 µM and the “Hill Slope” value was found to be 1.133.

As for `CC(=O)N(CC(O)CN(C(C)=O)c1c(I)c(C(=O)NCC(O)CO)c(I)c(C(=O)NCC(O)CO)c1I)c1c(I)c(C(=O)NCC(O)CO)c(I)c(C(=O)NCC(O)CO)c1I` (stereo not shown) [iodixanol], the Z10 in experiment [2] (setting [7]) is listed as -0.9551.

Regarding `CCCC[C@H](NC(=O)[C@@H]1[C@@H]2[C@H](CN1C(=O)[C@@H](NC(=O)NC1(CS(=O)(=O)C(C)(C)C)CCCCC1)C(C)(C)C)C2(C)C)C(=O)C(=O)NC1CC1` [narlaprevir], in experiment [1], the “Hill Slope” value amounted to 0.9106.

As to `CCC(CC)COC(=O)[C@H](C)N[P@](=O)(OC[C@H]1O[C@@](C#N)(c2ccc3c(N)ncnn23)[C@H](O)[C@@H]1O)Oc1ccccc1` [remdesivir], the period of recovery in experiment [6] is on record as 10 days.

For `CCC[C@H](NC(=O)[C@@H]1[C@H]2CCC[C@H]2CN1C(=O)[C@@H](NC(=O)[C@@H](NC(=O)c1cnccn1)C1CCCCC1)C(C)(C)C)C(=O)C(=O)NC1CC1` [telaprevir], the “Hill Slope” value in experiment [1] came to 1.062.

On to dalargin, for which the Z10 in experiment [2] (setting [7]) is given as -1.032.

In the case of desmopressin-acetate, the Z10 in experiment [2] (setting [7]) is -0.4942.

As to hemin, in experiment [1], the IC50 amounted to 9.68 µM and the “Hill Slope” value amounted to 1.354.
